# Key:
# [1] = Overall conclusion of acute, subacute, chronic toxicity and teratogenesis tests; type: in vivo; settings: conclusion from all toxicity tests
# From the text: (§1) In order to evaluate the acute toxicity of a single high dose administration of Coenzyme Q10, male and female rats of Wistar strain and male and female mice of ICR-JCL strain were used, and oral, intramuscular, subcutaneous, and intravenous administrations were studied. For the oral administration of Coenzyme Q10, a gum Arabic suspension was used. For the intramuscular, subcutaneous and intravenous administrations, Coenzyme Q10 was used as a solution containing a nonionic surfactant, Nikkol HCO-60 . Nikkol HCO-60 is a trade mark of a non-ionic surfacent comprised of hydrogenated castor oil/polyoxyethylene-60 mole ether available from Nikko Chemicals, Co. Ltd., Japan.
# (§2) Observation was carried out for 7 days by using six males and six females for each dose group.
# (§3) Coenzyme Q10 was compulsorily and orally administered every day for 5 weeks to each group consisting of 10 male rats and 10 female rats of Wistar strain. The dose was 40, 200, and 1000 mg/Kg/day, respectively. Coenzyme Q10 was used in the form of gum Arabic suspension, while the solution containing gum Arabic alone was used as the control group. Collection of blood and urine samples and autopsies were carried out 5 weeks after the initiation of administration.
# Coenzyme Q10 was compulsorily and orally administered every day for 23 days to each group consisting of six male rabbits and five female rabbits. […]
# rats = experiment: Teratogenesis test in rats; type: in vivo, rat; settings: rats, 6, 60, 600 mg/Kg/day
# [2] = tested on: pancreas external secretion; experiment: Quantity of pancreatic juice secreted after pancreozymin in anesthetized rats; type: in vivo, rat (male Wistar)
# Protocol: (§4) Male Wistar rats weighing 300-400 g were fasted for 14-20 hours and then anesthetized with 1 g/Kg of urethane. A stainless steel tube was inserted into the common bile duct at the opening to the duodenum and fixed thereto (pancreatic cannula) to take out pancreatic juice. The common bile duct was ligated at an upper portion and a polyethylene tube was inserted into the bile duct and fixed thereto to allow the bile to flow outward. The pylorus was ligated. The medicament was administered into a femoral vein through the polyethylene tube.
# (§5) The quantity of the pancreatic juice was measured by using a calibrated silicone rubber tube fitted to the pancreatic duct cannula. The tube was changed every 10 minutes.
# (§6) Coenzyme Q10 was solubilized in water with Nikkol HCO-60 before use. An aqueous solution of Nikkol HCO-60 was used as placebo.
# (§7) Coenzyme Q10 (3 mg/100 g body weight) and the placebo were administered to the rats through the femoral vein. After 60 minutes, pancreozymin (0.2 Crick, Harper and Raper unit/100 g body weight) was administered through the femoral vein.
# (§8) FIGS. 1 and 2 show the quantities of pancreatic juice secreted when placebo was administered and when Coenzyme Q10 was administered, respectively. In FIGS. 1 and 2, the ordinates represent the quantity of the pancreatic juice secreted (μl/min./100 g body weight) and the abscissae represent time (min.). FIGS. 3 and 4 show the quantities of amylase secreted when placebo was administered and when Coenzyme Q10 was administered, respectively. In FIGS. 3 and 4, the ordinates represent quantity of amylase secreted (unit/min./100 g body weight) and the abscissae represent time (min.). In FIGS. 1-4, the values are average values ± standard deviation. The arrows in the figures indicate the times when Coenzyme Q10, placebo and pancreozymin were administered.
# rats of Wistar strain [3] = experiment: Subacute oral toxicity test in rats (5 weeks); type: in vivo, rat (Wistar strain)
# Protocol: as §3
# rats of Wistar strain [4] = experiment: Acute toxicity test in rats (single high dose); type: in vivo, rat (Wistar strain)
# From the text: as §1, §2
# [5] = tested on: amylase of the pancreatic juice; experiment: Quantity of amylase secreted in pancreatic juice after pancreozymin in anesthetized rats; type: in vivo, rat (male Wistar)
# Protocol: as §4, §5
# Amylase activity of the pancreatic juice was determined by Kanno's method [Journal of Physiology (London) Vol. 245, P. 599 (1975)]. One amylase unit indicates a unit of amylase activity producing 1 mg of maltose by incubation of 37° C for 5 minutes.
# as §6, §7, §8
# mice of ICR-JCL strain = experiment: Acute toxicity test in mice (single high dose); type: in vivo, mouse (ICR-JCL strain)
# From the text: as §1, §2
# [6] = Solubility of Coenzyme Q10 (properties); type: physicochemical
# From the text: Coenzymes Q used in the present invention, for example, Coenzyme Q10 (the compound in which n = 10 in the above formula), can be mainly obtained synthetically, although it is possible to extract Coenzyme Q from animal organs. The physical and chemical properties of Coenzyme Q10 produced synthetically are as follows.
# rabbits = experiment: Subacute oral toxicity test in rabbits (23 days); type: in vivo, rabbit
# Protocol: Coenzyme Q10 was compulsorily and orally administered every day for 23 days to each group consisting of six male rabbits and five female rabbits. The dose was 6, 60 and 600 mg/Kg/day, respectively. Coenzyme Q10 was used in the form of gum Arabic suspension, whereas the solution containing gum Arabic alone was used as the control group, On the 24th day, blood samples were collected from all the animals, and three males and two females from each group were then selectively autopsied.
# mice = experiment: Teratogenesis test in mice; type: in vivo, mouse; settings: mice, 6, 60, 600 mg/Kg/day
# rats of Wistar strain [7] = experiment: Chronic oral toxicity test in rats (26 weeks); type: in vivo, rat (Wistar strain)
# Protocol: Coenzyme Q10 was compulsorily and orally administered to each group consisting of 10 male rats and 10 female rats of Wistar strain for consecutive 26 weeks in a ratio of 6 days a week. The dose was 6, 60 and 600 mg/Kg/day, respectively. Coenzyme Q10 was used in the form of gum Arabic suspension, whereas the solution containing gum Arabic alone is used as the control group. Collection of blood and urine samples and autopsies were carried out 26 weeks after the administration.
# [8] = 3 mg/100 g femoral vein, after pancreozymin
# [9] = 10 minutes after pancreozymin, Coenzyme Q10 3 mg/100 g i.v. (femoral vein) 60 minutes before
# [10] = 40, 200, 1000 mg/Kg/day oral, 5 weeks
# [11] = any administration group, 7 days
# [12] = intramuscular, Nikkol HCO-60 solution, single dose, 7 days
# [13] = intravenous, Nikkol HCO-60 solution, single dose, 7 days
# [14] = maximum dose in each administration route
# [15] = oral, gum Arabic suspension, single dose, 7 days observation
# [16] = relative to maximum doses of Table 1
# [17] = subcutaneous, Nikkol HCO-60 solution, single dose, 7 days
# [18] = 6, 60, 600 mg/Kg/day oral, 23 days
# [19] = 6, 60, 600 mg/Kg/day oral, 26 weeks
# [20] = spontaneous pneumonia and aspiration pneumonia due to erroneous administration, dose group not stated
structure (smiles),measurement,setting,value
COC1=C(OC)C(=O)C(C/C=C(\C)CC/C=C(\C)CC/C=C(\C)CC/C=C(\C)CC/C=C(\C)CC/C=C(\C)CC/C=C(\C)CC/C=C(\C)CC/C=C(\C)CCC=C(C)C)=C(C)C1=O [Coenzyme Q10],overall safety,[1],"a very safe drug, without side-effects"
same,"adverse effects in mothers, fetuses and newborns",rats,no adverse effects were noted
same,"fourth response, quantity of pancreatic juice, P versus placebo",[2]; [8],< 0.05
same,"quantity of pancreatic juice secreted, comparison with placebo group",[2]; [8],significantly superior
same,"second response, quantity of pancreatic juice, P versus placebo",[2]; [8],< 0.02
same,"third response, quantity of pancreatic juice, P versus placebo",[2]; [8],< 0.02
same,"first response, quantity of pancreatic juice secreted, ratio to placebo group",[2]; [9],about 1.5 times
same,general condition and body weight versus control group,rats of Wistar strain [3]; [10],no difference
same,hematological test and biochemical test of blood and urine,rats of Wistar strain [3]; [10],No significant change was recognized
same,weight of each organ,rats of Wistar strain [3]; [10],no significant change
same,macroscopical and histological observation,"rats of Wistar strain [3]; hematoxylin-eosine staining and liver fat staining, 5 weeks",abnormality was not recognized
same,toxicity (conclusion),"rats of Wistar strain [3]; oral, 5 weeks",there was not recognized the toxicity seemingly due to the administration
same,dead animals during the experiment,"rats of Wistar strain [3]; spontaneous pneumonia and aspiration pneumonia due to error of administration, dose group not stated",four
same,acute toxicity (conclusion),rats of Wistar strain [4],extremely low
same,"general condition, body weight, food intake, autopsy findings",rats of Wistar strain [4]; [11],no change was recognized
same,"Maximum dose (no case of deaths), intramuscular",rats of Wistar strain [4]; [12],500 mg/kg
same,"Maximum dose (no case of deaths), intravenous",rats of Wistar strain [4]; [13],250 mg/kg
same,deaths,rats of Wistar strain [4]; [14],no case of deaths
same,"Maximum dose (no case of deaths), oral",rats of Wistar strain [4]; [15],4000 mg/kg
same,LD50,rats of Wistar strain [4]; [16],far higher than the maximum dose mentioned above
same,"Maximum dose (no case of deaths), subcutaneous",rats of Wistar strain [4]; [17],500 mg/kg
same,"second through fourth responses, quantity of amylase, P versus placebo","[5]; 3 mg/100 g femoral vein, after pancreozymin, all cases",higher than 0.05
same,"first response, quantity of amylase secreted, ratio to placebo group",[5]; [9],about 1.6 times
same,"quantity of amylase secreted, comparison with placebo group","[5]; second through fourth responses, 3 mg/100 g femoral vein, after pancreozymin",significantly superior
same,acute toxicity (conclusion),mice of ICR-JCL strain,extremely low
same,"general condition, body weight, food intake, autopsy findings",mice of ICR-JCL strain; [11],no change was recognized
same,"Maximum dose (no case of deaths), intramuscular",mice of ICR-JCL strain; [12],500 mg/kg
same,"Maximum dose (no case of deaths), intravenous",mice of ICR-JCL strain; [13],250 mg/kg
same,deaths,mice of ICR-JCL strain; [14],no case of deaths
same,"Maximum dose (no case of deaths), oral",mice of ICR-JCL strain; [15],4000 mg/kg
same,LD50,mice of ICR-JCL strain; [16],far higher than the maximum dose mentioned above
same,"Maximum dose (no case of deaths), subcutaneous",mice of ICR-JCL strain; [17],500 mg/kg
same,solubility in acetone,[6]; acetone,soluble
same,solubility in benzene,[6]; benzene,easily soluble
same,solubility in carbon tetrachloride,[6]; carbon tetrachloride,easily soluble
same,solubility in chloroform,[6]; chloroform,easily soluble
same,solubility in ethanol,[6]; ethanol,insoluble
same,solubility in ether,[6]; ether,soluble
same,solubility in methanol,[6]; methanol,hardly soluble
same,solubility in water,[6]; water,hardly soluble
same,general condition and increase of body weight versus control group,rabbits; [18],no difference
same,hematological test and biochemical test of blood,rabbits; [18],Abnormal findings were not obtained
same,weight of each organ,rabbits; [18],no effect on the weight of each organ
same,electron-microscopic observation of liver,"rabbits; 7th, 14th and 24th days",there were not recognized abnormal findings on the minute structure of the liver
same,macroscopical and histological observation,rabbits; hematoxylin-eosine staining and liver fat staining,abnormalities were not recognized
same,toxicity (conclusion),"rabbits; oral, 23 days",there were not recognized the findings wherein the toxicity of Coenzyme Q10 will be suggested
same,"adverse effects in mothers, fetuses and newborns",mice,no adverse effects were noted
same,body weight,rats of Wistar strain [7]; [19],increased the same as that of the control group
same,general condition versus control group,rats of Wistar strain [7]; [19],no difference
same,weights of organs,rats of Wistar strain [7]; 26 weeks,no significant increase and decrease
same,leukocytal percentages,"rats of Wistar strain [7]; hematological findings, 26 weeks","some increase and decrease, but do not provide the mutual relation depending upon the dose; the percentages being within the range of physiological fluctuations"
same,macroscopical and histological observation,"rats of Wistar strain [7]; hematoxylin-eosine staining and liver fat staining, versus control group",abnormalities were not recognized
same,toxicity (conclusion),"rats of Wistar strain [7]; oral, 26 weeks",no toxicity was observed
same,"deaths, females",rats of Wistar strain [7]; [20],three
same,"deaths, males",rats of Wistar strain [7]; [20],11 males
same,biochemical tests of blood and urine,"rats of Wistar strain [7]; versus control group, 26 weeks",No significant changes were recognized

# Source: patent US4068001A, “Method of medical treatment of pancreatic insufficiency” (priority 1976, dated 1978)
